Experimental data as given in patent US20050091702A1, “Expression of polypeptides in rod outer segment membranes” (priority 2001, published 2005).

Legend:
[1] = target: transducin in ROS membrane (Xenopus laevis); experiment: cell-based or functional assay
[2] = target: T1, 5HT1AR-GFP-1D4 fusion protein (Homo sapiens, UniProt P08908); experiment: Saturation radioligand binding to transgenic tadpole membranes expressing 5HT1AR-GFP-1D4
T1 construct: expressed in transfected cells; host or cells: transgenic Xenopus laevis tadpoles (rod cells; homogenized membranes), transgene pXOP-5HTR-GFP-1D4
Description: (§1) Radioligand binding assay were performed using transgenic tadpoles (stage 48 or older) or CHO cells expressing 5HT1A receptors homogenized in binding buffer (50 mM Tris-HCl, pH 7.4, 2 mM MgCl2, 1 mM EDTA and proteinase inhibitor cocktail). The binding assay was performed in 96-well plate with [methyl-^3H]-MPPE as a radioligand. For saturation binding analyses, the membranes (20 μg/well) were incubated with 0.05% saponin in a final volume of 50 μl at room temperature for 10 min, and then incubated with 50 μl of [methyl-^3H]-MPPE (0-50 nM) for another 90 min. Nonspecific binding was determined in the presence of 10 μM serotonin. Assays were terminated by rapid filtration through GF/C filter plate with 4 times washes with washing buffer (20 mM Trics-HCl, pH 7.4). The radioactivity was measured by a TopCount (PerkinElmer). Assays were performed in duplicate.
(§2) Binding assays were performed to confirm that the 5HT1A receptor was expressed as a functional 5HT1AR-GPF-1D4 fusion protein in rod cell ROS of Xenopus tadpoles. Binding affinity was determined by measuring the binding affinity of [methyl-^3H]-MPPF, a radiolabeled selective ligand to the 5HT1A receptor, to the expressed fusion protein. Because the 5HT1A receptor expressed in ROS disk membranes is oriented with the extracellular side facing the interior of these disks and shielded from the solution, the detergent saponin was used to open up pores in these disk membranes and allow access to the ligands. Saponin at a concentration of 0.05% or more could effectively increase specific binding of [methyl-^3H]-MPPE to 5HT1AR transgenic tadpole membranes, but not to control tadpole membranes. […] Based on these observations, 0.05% saponin was included in all ligand binding assays.
(§3) Saturation binding assays were also performed to measure the binding affinity and compare it to 5HT1A receptor expressed in standard mammalian CHO cells. […] The low nanomolar affinity and extent of specific binding further corroborates that the 5HT1A receptor is properly folded in transgenic tadpoles. […]

[3] = tested on: 5HT1AR-GFP-1D4 fusion protein; experiment: as above; design: species or system human; conditions: tadpole KD versus CHO KD
Description: as §1, §2, §3

5HT1A receptor [4] = target: T2, 5HT1A receptor (Homo sapiens, UniProt P08908); experiment: Saturation radioligand binding to membranes from CHO cells expressing the 5HT1A receptor; conditions: membrane samples from CHO cells expressing the 5HT1A receptor, read-out: binding affinity KD
T2 construct: expressed in transfected cells; host or cells: CHO cells (transient expression)
T2 sequence (P08908 1-422): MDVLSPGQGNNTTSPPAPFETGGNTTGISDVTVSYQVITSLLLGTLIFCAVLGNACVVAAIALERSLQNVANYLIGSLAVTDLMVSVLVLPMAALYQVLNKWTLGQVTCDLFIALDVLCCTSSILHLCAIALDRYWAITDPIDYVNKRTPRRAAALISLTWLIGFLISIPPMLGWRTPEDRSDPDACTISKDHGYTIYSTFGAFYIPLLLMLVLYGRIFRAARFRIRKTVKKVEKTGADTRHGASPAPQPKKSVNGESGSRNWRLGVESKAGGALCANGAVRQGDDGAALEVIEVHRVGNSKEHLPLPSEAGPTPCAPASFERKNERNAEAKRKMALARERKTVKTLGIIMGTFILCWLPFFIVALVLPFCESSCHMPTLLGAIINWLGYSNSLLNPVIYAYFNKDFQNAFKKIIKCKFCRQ
Description: as §1
Saturation binding assays were also performed to measure the binding affinity and compare it to 5HT1A receptor expressed in standard mammalian CHO cells. […] The low nanomolar affinity and extent of specific binding further corroborates that the 5HT1A receptor is properly folded in transgenic tadpoles. […] For example, the effect on binding affinity may be due to different ligand kon or koff kinetic parameters, or different partition coefficients to the different lipids present in these membranes.

5HT1A receptor [5] = target: T3, 5HT1A receptor (Homo sapiens, UniProt P08908); experiment: [35S]GTPγS binding to transgenic tadpole membranes expressing 5HT1A; type: biochemical
T3 construct: expressed in transfected cells; host or cells: transgenic Xenopus laevis tadpoles (rod cells; homogenized membranes), transgene pXOP-5HTR-GFP-1D4
Description: (§4) A receptor binding assay was performed to determine retention of functional receptor using [^35S]GTPγS labeled receptor ligand. Transgenic tadpoles (stage 48 or older) or CHO cells expressing 5HT1A receptors were homogenized in binding buffer (20 mM HEPES, pH 7.4, 10 mM MgCl2, 1 mM EDTA, 100 mM NaCl). The binding assay was performed in 96-well Scintiplate (PerkinElmer). To reduce [^35S]-GTPγS binding to rhodopsin-activated transducin in retina membrane, the membrane from tadpoles was preincubated with 10 mM hydroxylamine in binding buffer at room temperature for 60 min. The membranes (25 μg/well) were incubated with indicated ligands for 30 min in a total volume of 150 μl binding buffer containing 10 μM GDP, 0.5% BSA, 1 mM DTT), then 50 μl of […] [^35S]-GTPγS was added to each well to make a final concentration of 200 pM. The binding assays were carried out at room temperature for 60 min under gentle shaking. Final concentration of hydroxylamine in binding assay should be no more than 1 mM, Nonspecific binding was determined in the presence of 10 μM unlabelled GTPγS. Assays were terminated by centrifugation at 4000 g for 15 min and removal of supernatant. The radioactivity was measured by a TopCounter (PerkinElmer). Assays were performed in triplicate. […]
T3 sequence (P08908 with tags, fused parts or gaps): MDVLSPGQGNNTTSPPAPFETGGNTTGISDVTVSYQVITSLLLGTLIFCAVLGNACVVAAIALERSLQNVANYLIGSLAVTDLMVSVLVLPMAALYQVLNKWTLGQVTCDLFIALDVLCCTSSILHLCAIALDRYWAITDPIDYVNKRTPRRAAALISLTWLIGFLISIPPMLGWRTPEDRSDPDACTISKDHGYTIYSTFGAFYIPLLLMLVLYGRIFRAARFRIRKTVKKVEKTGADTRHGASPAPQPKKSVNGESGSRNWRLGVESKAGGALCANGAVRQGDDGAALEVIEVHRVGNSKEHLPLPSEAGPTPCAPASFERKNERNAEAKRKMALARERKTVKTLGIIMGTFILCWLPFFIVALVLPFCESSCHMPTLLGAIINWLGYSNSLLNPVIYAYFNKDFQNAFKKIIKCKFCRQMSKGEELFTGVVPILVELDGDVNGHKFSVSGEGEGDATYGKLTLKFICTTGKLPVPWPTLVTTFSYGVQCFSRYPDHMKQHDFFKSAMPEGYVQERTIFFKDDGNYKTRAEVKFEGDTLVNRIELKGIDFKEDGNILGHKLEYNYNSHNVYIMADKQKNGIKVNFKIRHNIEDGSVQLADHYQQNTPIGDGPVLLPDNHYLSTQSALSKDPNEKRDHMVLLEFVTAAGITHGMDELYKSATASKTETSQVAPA

5HT1A receptor [6] = target: T2, 5HT1A receptor; experiment: [35S]GTPγS binding to CHO membranes transiently expressing 5HT1A; type: biochemical; conditions: CHO cells expressing 5HT1A
Description: as §4

[7] = target: endogenous G proteins in retina rod cells; experiment: cell-based or functional assay
[8] = target: T4, rhodopsin-transducin interaction (Xenopus laevis, UniProt P29403); experiment: Hydroxylamine inactivation of rhodopsin-mediated basal [35S]GTPγS binding in tadpole ROS membranes; type: biochemical; conditions: 10 mM hydroxylamine, room temperature
T4 construct: from tissue; host or cells: Xenopus laevis tadpole (retina/ROS) membranes
T4 sequence (P29403 1-354): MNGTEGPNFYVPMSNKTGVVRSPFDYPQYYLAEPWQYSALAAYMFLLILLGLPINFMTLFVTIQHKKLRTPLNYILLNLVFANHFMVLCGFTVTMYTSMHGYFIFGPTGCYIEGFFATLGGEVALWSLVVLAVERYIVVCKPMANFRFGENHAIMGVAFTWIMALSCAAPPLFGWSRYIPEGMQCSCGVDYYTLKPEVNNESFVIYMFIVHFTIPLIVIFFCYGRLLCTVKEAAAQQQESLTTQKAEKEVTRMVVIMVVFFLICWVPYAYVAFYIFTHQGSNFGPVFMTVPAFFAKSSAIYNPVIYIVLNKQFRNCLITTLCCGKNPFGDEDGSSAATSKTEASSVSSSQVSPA
Description: as §4

CHO membranes = experiment: Hydroxylamine effect on [35S]GTPγS binding to CHO membranes; type: biochemical; conditions: 10 mM hydroxylamine
Description: as §4

T1 sequence (P08908 with tags, fused parts or gaps): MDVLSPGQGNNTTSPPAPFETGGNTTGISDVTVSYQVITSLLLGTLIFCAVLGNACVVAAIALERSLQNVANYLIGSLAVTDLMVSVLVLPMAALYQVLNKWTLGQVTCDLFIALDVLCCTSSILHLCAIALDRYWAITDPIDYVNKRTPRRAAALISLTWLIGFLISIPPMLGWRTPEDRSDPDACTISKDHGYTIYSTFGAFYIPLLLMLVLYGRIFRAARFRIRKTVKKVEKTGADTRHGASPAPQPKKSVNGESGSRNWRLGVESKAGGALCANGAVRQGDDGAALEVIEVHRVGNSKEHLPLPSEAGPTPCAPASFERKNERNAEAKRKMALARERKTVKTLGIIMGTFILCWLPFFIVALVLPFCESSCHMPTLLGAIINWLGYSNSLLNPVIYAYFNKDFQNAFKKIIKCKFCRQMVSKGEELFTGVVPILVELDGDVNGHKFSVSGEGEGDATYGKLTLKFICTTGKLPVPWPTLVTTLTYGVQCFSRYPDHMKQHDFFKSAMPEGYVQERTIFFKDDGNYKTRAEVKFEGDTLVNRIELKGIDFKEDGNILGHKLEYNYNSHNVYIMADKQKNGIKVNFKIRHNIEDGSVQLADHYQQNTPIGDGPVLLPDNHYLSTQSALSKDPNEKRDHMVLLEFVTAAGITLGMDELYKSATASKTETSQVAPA

Xenopus rhodopsin (endogenous, in tadpole eye extracts) (from UniProt P29403 1-354) (receptor)
decrease in basal [^35S]GTPγS binding to tadpole membranes after treatment with 10 mM hydroxylamine [1]: 50%

[3H]C([3H])([3H])Oc1ccccc1N1CCN(CCN(C(=O)c2ccc(F)cc2)c2ccccn2)CC1 [[methyl-^3H]-MPPF]
specific binding to transgenic 5HT1A tadpole membranes ([2]; FIG. 14, 0.05% saponin, nonspecific binding with 10 μM serotonin): dose-dependent manner | difference in dissociation constants KD between transgenic tadpoles and CHO cells [3]: about 17 fold

COc1ccccc1N1CCN(CCN(C(=O)c2ccc(F)cc2)c2ccccn2)CC1 [[methyl-^3H]-MPPF]
Kd ([2]; transgenic Xenopus tadpole membranes expressing 5HT1AR-GFP-1D4, 0.05% saponin, saturation binding, read-out: binding affinity KD): 6.7 nM | Kd (5HT1A receptor [4]): 0.35 ± 0.1 nM

NCCc1c[nH]c2ccc(O)cc12 [serotonin, 5-hydroxytryptamine]
stimulation of [35S]GTPγS binding (5HT1A receptor [5]; tadpole membranes pretreated with 10 mM hydroxylamine): about 50% | effect on [35S]GTPγS binding (5HT1A receptor [6]): specifically stimulated

h5HT1AR-GFP-1D4 fusion protein (from UniProt P08908 1-422) (receptor)
[^35S]GTPγS binding to transgenic tadpole membranes, stimulated by the agonist serotonin [7]: 50%

NO [hydroxylamine]
reduction of basal [35S]GTPγS binding [8]: ~50% | effect on [35S]GTPγS binding (CHO membranes): without significant effect

O=C(CCCN1CCC2(CC1)C(=O)NCN2c1ccccc1)c1ccc(F)cc1 [spiperone]
effect on [35S]GTPγS binding (5HT1A receptor [5]; transgenic tadpole membranes): significantly block | effect on [35S]GTPγS binding (5HT1A receptor [6]): significantly block
